Source: patent US20030216324A1, “Airway mucus secretion inhibitors” (priority 2000, published 2003)

Tests used:
[1] = tested on: augmentative mucus secretion in guinea pig trachea; experiment: Suppressive effect on augmentative secretion by antigen challenge (ovalbumin-sensitized guinea pig, mucus score by PAS-Alcian Blue); assay type: in vivo; details: OA-sensitized guinea pig; test drug 100 mg/kg oral; 5% OA inhaled 30 minutes after drug; trachea removed 10 minutes later
Protocol: Suppressive Effect on Augmentative Secretion by Antigen Challenge
Egg albumin (Ovalbumin:OA) (70 mg/kg) is administered and sensitized to guinea pig into the peritoneal cavity on the first experiment day and 8th day. The test drug (100 mg/kg) was oral administered to the sensitized guinea pig on 22nd experiment day. 5%OA was inhaled for 2 minutes 30 minutes after the test drug was administered, and the trachea was removed 10 minutes later. It was dyed with PAS-Alcian Blue, and the augmentative mucus secretion was evaluated according to the level of the decrease in mucus score.
As a test drug, 2-[5-amino-6-oxo-2-phenyl-1,6-dihydro-1-pyrimidinyl]-N-[1-[[5-(t-butyl)-1,3,4-oxadiazole-2-yl]carbonyl]-2-methylpropyl]acetamide (Compound 34) was used.

[2] = tested on: augmentative airway mucus secretion; details: airway inflammation model by ozone exposure (lesion similar to chronic bronchitis); cited from earlier work

Row | SMILES | mucus score (augmentative mucus secretion, PAS-Alcian Blue dye) [1] | augmentative airway mucus secretion [2]
1 | CC(C)C(NC(=O)Cn1c(-c2ccccc2)ncc(N)c1=O)C(=O)c1nnc(C(C)(C)C)o1 (centres unmarked) [Compound 34, 2-[5-amino-6-oxo-2-phenyl-1,6-dihydro-1-pyrimidinyl]-N-[1-[[5-(t-butyl)-1,3,4-oxadiazole-2-yl]carbonyl]-2-methylpropyl]acetamide] | intentionally suppressed | 
2 | CC(C)(C)C(=O)Oc1ccc(S(=O)(=O)Nc2ccccc2C(=O)NCC(=O)O)cc1 [ONO-5046] |  | suppress
